In ChEMBL document CHEMBL1201862, “PubChem BioAssay data set” (2004):
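Protocol summary: plate cells (96-well), add compound at 5 concentrations, incubate 48 h, interpolate endpoints linearly. GI50: concentration for 50% inhibition of growth.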 Calls of active or inactive are those of the source. No stated cut-off is given here; in the data, active = GI50 up to about 1.1 µM and inactive = higher.

Legend:
Assay in all cases: DTP human tumour cell line panel, 48 h
TK-10 = system: TK-10
HOP-62 = system: HOP-62
M14 = system: M14
RXF 393 = system: RXF 393
SR = system: SR
OVCAR-4 = system: OVCAR-4
KM-20L2 = system: KM-20L2
HOP-92 = system: HOP-92
M19-MEL = system: M19-MEL
SNB-78 = system: SNB-78
HOP-18 = system: HOP-18
ACHN = system: ACHN
786-0 = system: 786-0
LOX IMVI = system: LOX IMVI
DLD-1 = system: DLD-1
MCF7 = system: MCF7
BT-549 = system: BT-549
NCI/ADR-RES = system: NCI/ADR-RES
CAKI-1 = system: CAKI-1
DU-145 = system: DU-145

Measured: GI50

O=C1C(Cl)N(c2ccc(Cl)cc2Cl)C1c1c[nH]c2ccccc12 (configuration not stated)
inactive: TK-10 > 100 µM | HOP-62 > 100 µM | M14 > 100 µM | RXF 393 74 µM | SR 59.8 µM | OVCAR-4 > 100 µM | KM-20L2 > 100 µM | HOP-92 44.5 µM | M19-MEL > 100 µM

CCCCCCCCCCCCCCNCC(OC)OC
inactive: TK-10 17.4 µM | SNB-78 17.4 µM | HOP-62 16.7 µM | M14 14.1 µM | RXF 393 14.7 µM | HOP-18 13.3 µM | ACHN 16.2 µM | OVCAR-4 15.1 µM | KM-20L2 14.4 µM | HOP-92 10.2 µM | 786-0 16 µM | LOX IMVI 16.4 µM | DLD-1 14.6 µM | M19-MEL 18.1 µM

Cn1cnc(/C=C/C#N)c1
inactive: TK-10 > 100 µM | MCF7 > 100 µM | BT-549 > 100 µM | HOP-62 > 100 µM | M14 > 100 µM | RXF 393 > 100 µM | ACHN > 100 µM | SR > 100 µM | OVCAR-4 > 100 µM | HOP-92 > 100 µM | NCI/ADR-RES > 100 µM | CAKI-1 > 100 µM

Cc1cccc(Cl)c1NC(N)=S
inactive: TK-10 50.9 µM | SNB-78 77.1 µM | HOP-62 50.8 µM | M14 87.5 µM | HOP-18 11.1 µM | ACHN 27.5 µM | OVCAR-4 50.9 µM | KM-20L2 50.8 µM | HOP-92 35.4 µM | 786-0 20.2 µM | CAKI-1 43.7 µM | DLD-1 57.7 µM | M19-MEL > 100 µM

COc1cccc(C2c3cc4c(cc3OC(N3CCOCC3)C2C)OCO4)c1OC (configuration not stated)
inactive: TK-10 15.5 µM | MCF7 7.91 µM | HOP-62 11.4 µM | M14 9.1 µM | ACHN 5.33 µM | SR 4.75 µM | DU-145 3.21 µM | NCI/ADR-RES 4.58 µM | 786-0 5.22 µM | LOX IMVI 3.06 µM | CAKI-1 2.02 µM

O=C(O)CN(CC(=O)O)C1CCCCC1N(CC(=O)O)CC(=O)NCCN=C=S (configuration not stated)
inactive: TK-10 > 100 µM | MCF7 > 100 µM | BT-549 > 100 µM | HOP-62 > 100 µM | M14 > 100 µM | RXF 393 > 100 µM | ACHN > 100 µM | DU-145 > 100 µM | HOP-92 > 100 µM | NCI/ADR-RES > 100 µM | LOX IMVI > 100 µM | CAKI-1 > 100 µM

CCOC(=O)C(NC(C)=O)(Nc1ccc(F)cc1)C(F)(F)F (configuration not stated)
inactive: TK-10 > 100 µM | MCF7 28.2 µM | BT-549 > 100 µM | M14 20.2 µM | RXF 393 40.3 µM | ACHN 2.62 µM | SR 24.8 µM | DU-145 > 100 µM | OVCAR-4 88.1 µM | HOP-92 > 100 µM | NCI/ADR-RES 8.13 µM | LOX IMVI > 100 µM | CAKI-1 > 100 µM

COCCOCCOCCC(=O)NC1CC2CCC1(C)C2(C)C (configuration not stated)
inactive: TK-10 > 100 µM | MCF7 > 100 µM | BT-549 > 100 µM | HOP-62 > 100 µM | M14 > 100 µM | RXF 393 > 100 µM | ACHN > 100 µM | SR > 100 µM | DU-145 > 100 µM | OVCAR-4 > 100 µM | NCI/ADR-RES > 100 µM | 786-0 > 100 µM | LOX IMVI > 100 µM | CAKI-1 > 100 µM

CC1(C23CC4CC(CC(C4)C2)C3)n2c(=O)n(-c3ccccc3)c(=O)n2C1(C)C12CC3CC(CC(C3)C1)C2 (configuration not stated)
inactive: TK-10 > 100 µM | MCF7 > 100 µM | BT-549 > 100 µM | HOP-62 > 100 µM | M14 > 100 µM | ACHN > 100 µM | SR > 100 µM | DU-145 > 100 µM | HOP-92 > 100 µM | NCI/ADR-RES > 100 µM | CAKI-1 > 100 µM

O=C1c2ccccc2OCC1/C=N/O (configuration not stated)
inactive: MCF7 29.6 µM | SNB-78 > 72.9 µM | HOP-62 > 100 µM | RXF 393 32.4 µM | HOP-18 > 100 µM | OVCAR-4 > 62.5 µM | HOP-92 > 55.1 µM | NCI/ADR-RES > 100 µM | LOX IMVI 31.3 µM | DLD-1 > 91.4 µM | M19-MEL 70.1 µM

COc1nc(N)c(C(=O)CCl)c(=O)n1C
inactive: TK-10 14.7 µM | SNB-78 12 µM | M14 > 10 µM | RXF 393 7.35 µM | HOP-18 16.4 µM | ACHN 20.6 µM | SR 15.3 µM | OVCAR-4 15.4 µM | KM-20L2 18.3 µM | HOP-92 4.66 µM | LOX IMVI 5.28 µM | CAKI-1 7.41 µM | DLD-1 13.2 µM

Cn1ccnc1Sc1ccc(/C=N/NC(=O)c2ccccc2O)cc1[N+](=O)[O-]
inactive: TK-10 > 100 µM | MCF7 84.3 µM | BT-549 89.7 µM | HOP-62 73.6 µM | M14 > 100 µM | RXF 393 > 100 µM | ACHN > 100 µM | SR 2.27 µM | DU-145 > 100 µM | OVCAR-4 72.6 µM | HOP-92 > 100 µM | NCI/ADR-RES > 100 µM | 786-0 61.4 µM | LOX IMVI 65.2 µM | CAKI-1 72.8 µM

CCCc1nc(NC#N)nc(C(=O)NC23CC4CC(CC(C4)C2)C3)c1C
inactive: TK-10 > 100 µM | SNB-78 > 100 µM | HOP-62 > 100 µM | M14 > 100 µM | RXF 393 > 100 µM | HOP-18 > 100 µM | ACHN > 100 µM | SR > 100 µM | OVCAR-4 > 100 µM | KM-20L2 > 100 µM | HOP-92 > 100 µM | 786-0 > 100 µM | LOX IMVI > 100 µM | CAKI-1 > 100 µM | DLD-1 > 100 µM | M19-MEL > 100 µM

COc1cccc(NC(=O)N/C(=C/c2ccc(N(CCC#N)CCC#N)cc2)NC(=O)c2cc([N+](=O)[O-])ccc2Cl)c1
inactive: TK-10 > 100 µM | SNB-78 > 100 µM | HOP-62 > 100 µM | RXF 393 > 100 µM | HOP-18 > 100 µM | ACHN > 100 µM | SR 10.1 µM | OVCAR-4 > 100 µM | KM-20L2 > 100 µM | HOP-92 > 100 µM | LOX IMVI 71.4 µM | CAKI-1 > 100 µM | DLD-1 89.5 µM | M19-MEL > 100 µM

CC(C)(C)c1cc(C(P(=O)(c2ccccc2)c2ccccc2)P(=O)(c2ccccc2)c2ccccc2)cc(C(C)(C)C)c1O
inactive: TK-10 4.68 µM | MCF7 2.28 µM | BT-549 3.36 µM | HOP-62 2.56 µM | M14 1.75 µM | RXF 393 3.19 µM | ACHN 3.18 µM | SR 2.28 µM | DU-145 3.3 µM | OVCAR-4 3.35 µM | HOP-92 2.43 µM | NCI/ADR-RES 2.12 µM | 786-0 2.8 µM | LOX IMVI 1.92 µM | CAKI-1 3.85 µM

COc1ccc(C(=O)c2c(-c3ccccc3NC(=O)C(F)(F)F)[nH]c3ccccc23)cc1
inactive: TK-10 11.6 µM | MCF7 1.74 µM | BT-549 14.5 µM | HOP-62 9.16 µM | M14 14.3 µM | ACHN 3.16 µM | SR 2.81 µM | DU-145 5.18 µM | OVCAR-4 4.59 µM | HOP-92 12.4 µM | NCI/ADR-RES 8.28 µM | LOX IMVI 4.35 µM | CAKI-1 6.41 µM

Clc1cc(Cl)cc(C2ON=C(c3ccccc3)N2C23CC4CC(CC(C4)C2)C3)c1 (configuration not stated)
inactive: TK-10 > 10 µM | MCF7 > 10 µM | BT-549 > 10 µM | HOP-62 > 10 µM | M14 > 10 µM | RXF 393 > 10 µM | ACHN > 10 µM | DU-145 > 10 µM | OVCAR-4 > 10 µM | NCI/ADR-RES > 10 µM | 786-0 > 10 µM | LOX IMVI > 10 µM | CAKI-1 > 10 µM
active: HOP-92 0.643 µM

CCOC(=O)/C(=N/Nc1ccc(C)cc1)N1C(=S)N(C)N=C(C)C=C1S
inactive: TK-10 45.7 µM | MCF7 > 100 µM | BT-549 23.1 µM | M14 > 100 µM | RXF 393 41.7 µM | ACHN > 100 µM | SR > 100 µM | DU-145 > 100 µM | OVCAR-4 > 100 µM | HOP-92 49.5 µM | NCI/ADR-RES > 100 µM | CAKI-1 77.1 µM

NC(=O)CCC(N=C(N)c1csc(C2OC(CO)C(O)C2O)n1)C(=O)O (configuration not stated)
inactive: TK-10 > 100 µM | SNB-78 > 100 µM | M14 > 100 µM | RXF 393 > 100 µM | ACHN > 100 µM | OVCAR-4 > 100 µM | KM-20L2 > 100 µM | LOX IMVI > 100 µM | CAKI-1 > 100 µM | DLD-1 > 100 µM
active: HOP-18 < 0.01 µM

O=C(/N=C(/Nc1ccccc1)SCS/C(=N\C(=O)c1ccco1)Nc1ccccc1)c1ccco1
inactive: TK-10 29.4 µM | SNB-78 37.1 µM | HOP-62 19.5 µM | M14 > 100 µM | RXF 393 15.1 µM | ACHN 38.8 µM | OVCAR-4 82.2 µM | KM-20L2 > 100 µM | HOP-92 18.7 µM | 786-0 35.2 µM | LOX IMVI > 100 µM | CAKI-1 29.4 µM | DLD-1 44 µM | M19-MEL > 100 µM
